PubChem BioAssay (NCI)
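Each compound was tested at five concentrations against cells in 96-well plates for 48 hours. Here, GI50 denotes the concentration required for 50% inhibition of growth. TGI is the concentration that stops growth completely.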

How the values were obtained:
Experiment in all cases: NCI tumour cell line growth inhibition, 48 h
[1] = test system: 786-0 renal
[2] = test system: A498 renal
[3] = test system: A549 NSCLC
[4] = test system: ACHN renal
[5] = test system: BT-549 breast
[6] = test system: CAKI-1 renal
[7] = test system: COLO 205 colon
[8] = test system: DU-145 prostate
[9] = test system: EKVX NSCLC
[10] = test system: HCC-2998 colon
[11] = test system: HCT-116 colon
[12] = test system: HCT-15 colon
[13] = test system: HL-60(TB) leukemia
[14] = test system: HOP-62 NSCLC
[15] = test system: HOP-92 NSCLC
[16] = test system: HS 578T breast
[17] = test system: HT29 colon
[18] = test system: IGROV1 ovarian
[19] = test system: K-562 leukemia
[20] = test system: KM12 colon
[21] = test system: M14 melanoma
[22] = test system: MALME-3M melanoma
[23] = test system: MCF7 breast
[24] = test system: MDA-MB-231 breast
[25] = test system: MDA-MB-435
[26] = test system: MOLT-4 leukemia
[27] = test system: NCI-H226 lung
[28] = test system: NCI-H23 lung
[29] = test system: NCI-H460 lung
[30] = test system: NCI/ADR-RES ovarian
[31] = test system: OVCAR-3 ovarian
[32] = test system: OVCAR-4 ovarian
[33] = test system: OVCAR-5 ovarian
[34] = test system: OVCAR-8 ovarian
[35] = test system: PC-3 prostate
[36] = test system: RPMI-8226 leukemia
[37] = test system: RXF 393 renal
[38] = test system: SF-268 CNS
[39] = test system: SF-295 CNS
[40] = test system: SF-539 CNS
[41] = test system: SK-MEL-2 melanoma
[42] = test system: SK-MEL-28 melanoma
[43] = test system: SK-MEL-5 melanoma
[44] = test system: SK-OV-3 ovarian
[45] = test system: SN12C renal
[46] = test system: SNB-19 CNS
[47] = test system: SNB-75 CNS
[48] = test system: SR leukemia
[49] = test system: SW-620 colon
[50] = test system: T-47D breast
[51] = test system: TK-10 renal
[52] = test system: U251 CNS
[53] = test system: UACC-257 melanoma
[54] = test system: UACC-62 melanoma
[55] = test system: UO-31 renal
[56] = test system: CCRF-CEM leukemia
[57] = test system: NCI-H522 lung

Molecule `O=C(Nc1cccc(Cl)c1)Nc1nc2ccc([N+](=O)[O-])cc2o1` has a GI50 [1] of 2.49 µM, a TGI [1] of 7.77 µM and a GI50 [2] of 1.56 µM. The TGI [2] was 4.5 µM, the GI50 [3] was 3.06 µM and the TGI [3] was > 100 µM. For the same molecule, the GI50 [4] was 3.23 µM, the TGI [4] was 12.7 µM and the GI50 [5] was 2.09 µM. For the same molecule, the TGI [5] was 7.79 µM, the GI50 [6] was 2.17 µM and the TGI [6] was 7.56 µM. For the same molecule, the GI50 [7] was 2.4 µM, the TGI [7] was 7.82 µM and the GI50 [8] was 3.53 µM. The TGI [8] was > 100 µM, the GI50 [9] was 2.82 µM and the TGI [9] was > 100 µM. It also gave a GI50 [10] of 3.19 µM, a TGI [10] of 48.3 µM and a GI50 [11] of 2.59 µM. For the same molecule, the TGI [11] was 10.3 µM, the GI50 [12] was 2.46 µM and the TGI [12] was > 100 µM. It also gave a GI50 [13] of 2.09 µM, a TGI [13] of 4.99 µM and a GI50 [14] of 2.49 µM. It also gave a TGI [14] of 9.14 µM, a GI50 [15] of 1.65 µM and a TGI [15] of 6.04 µM. For the same molecule, the GI50 [16] was 3.3 µM, the TGI [16] was 54.4 µM and the GI50 [17] was 3.08 µM. The TGI [17] was > 100 µM, the GI50 [18] was 2.83 µM and the TGI [18] was > 100 µM. For the same molecule, the GI50 [19] was 3.02 µM, the TGI [19] was > 100 µM and the GI50 [20] was 3.17 µM. The TGI [20] was > 100 µM, the GI50 [21] was 2.54 µM and the TGI [21] was 22.8 µM. It also gave a GI50 [22] of 2.49 µM, a TGI [22] of 36 µM and a GI50 [23] of 2.82 µM. The TGI [23] was > 100 µM, the GI50 [24] was 2.67 µM and the TGI [24] was 8.54 µM. For the same molecule, the GI50 [25] was 2.88 µM, the TGI [25] was > 100 µM and the GI50 [26] was 2.36 µM. It also gave a TGI [26] of 7.71 µM, a GI50 [27] of 2.13 µM and a TGI [27] of 5.42 µM. It also gave a GI50 [28] of 1.9 µM, a TGI [28] of 7.09 µM and a GI50 [29] of 1.74 µM. The TGI [29] was 5.88 µM, the GI50 [30] was 2.66 µM and the TGI [30] was 8.84 µM. The GI50 [31] was 2.51 µM, the TGI [31] was 11.4 µM and the GI50 [32] was 2.56 µM. For the same molecule, the TGI [32] was > 100 µM, the GI50 [33] was 4.32 µM and the TGI [33] was > 100 µM. For the same molecule, the GI50 [34] was 3.12 µM, the TGI [34] was > 100 µM and the GI50 [35] was 2.18 µM. For the same molecule, the TGI [35] was 9.12 µM, the GI50 [36] was 1.48 µM and the TGI [36] was 5.02 µM. The GI50 [37] was 1.66 µM, the TGI [37] was 5.16 µM and the GI50 [38] was 3.04 µM. The TGI [38] was > 100 µM, the GI50 [39] was 1.99 µM and the TGI [39] was 6.02 µM. The GI50 [40] was 2.75 µM, the TGI [40] was 7.32 µM and the GI50 [41] was 2.09 µM. The TGI [41] was 6.11 µM, the GI50 [42] was 3.22 µM and the TGI [42] was > 100 µM. For the same molecule, the GI50 [43] was 1.51 µM, the TGI [43] was 4.19 µM and the GI50 [44] was 2.7 µM. It also gave a TGI [44] of 8.33 µM, a GI50 [45] of 2.28 µM and a TGI [45] of 7.43 µM. For the same molecule, the GI50 [46] was 2.79 µM, the TGI [46] was 86.5 µM and the GI50 [47] was 2.68 µM. The TGI [47] was 9.8 µM, the GI50 [48] was 2.69 µM and the TGI [48] was 7.84 µM. For the same molecule, the GI50 [49] was 2.71 µM, the TGI [49] was > 100 µM and the GI50 [50] was 1.47 µM. The TGI [50] was 7.59 µM, the GI50 [51] was 3.5 µM and the TGI [51] was 8.43 µM. The GI50 [52] was 2.71 µM, the TGI [52] was > 100 µM and the GI50 [53] was 2.25 µM. For the same molecule, the TGI [53] was 18.3 µM, the GI50 [54] was 1.54 µM and the TGI [54] was 4.81 µM. For the same molecule, the GI50 [55] was 2.67 µM and the TGI [55] was 7.82 µM.

`C=C(C=O)[C@@H]1CC[C@]2(C(=O)O)CC[C@]3(C)C(CC[C@@H]4[C@@](C)(CCC#N)[C@H](C(=C)C=O)CC[C@]43C)[C@@H]12` (stereo partly specified) was tested, and the GI50 [1] was 1.86 µM, the TGI [1] was 3.8 µM and the GI50 [2] was 14.2 µM. For the same molecule, the TGI [2] was 29.3 µM, the GI50 [3] was 7.29 µM and the TGI [3] was 23.9 µM. It also gave a GI50 [4] of 3.26 µM, a TGI [4] of 10.5 µM and a GI50 [5] of 1.82 µM. The TGI [5] was 3.57 µM, the GI50 [6] was 3.38 µM and the TGI [6] was 15.4 µM. The GI50 [56] was 2.78 µM, the TGI [56] was 8.75 µM and the GI50 [7] was 10.9 µM. It also gave a TGI [7] of 27.7 µM, a GI50 [8] of 3.72 µM and a TGI [8] of 12.7 µM. For the same molecule, the GI50 [9] was 6.64 µM, the TGI [9] was 23.9 µM and the GI50 [10] was 1.93 µM. It also gave a TGI [10] of 3.81 µM, a GI50 [11] of 1.8 µM and a TGI [11] of 3.46 µM. The GI50 [13] was 2.02 µM, the TGI [13] was 7.8 µM and the GI50 [14] was 2.08 µM. It also gave a TGI [14] of 4.67 µM, a GI50 [15] of 1.37 µM and a TGI [15] of 3.55 µM. The GI50 [16] was 3.17 µM, the TGI [16] was 18.9 µM and the GI50 [17] was 1.99 µM. The TGI [17] was 4.03 µM, the GI50 [18] was 2.82 µM and the TGI [18] was 8.47 µM. It also gave a GI50 [19] of 2.76 µM, a TGI [19] of 9.34 µM and a GI50 [20] of 3.22 µM. The TGI [20] was 10.6 µM, the GI50 [21] was 1.92 µM and the TGI [21] was 4.1 µM. For the same molecule, the GI50 [22] was 2.53 µM, the TGI [22] was 8.01 µM and the GI50 [23] was 2.9 µM. The TGI [23] was 12.1 µM, the GI50 [24] was 3.05 µM and the TGI [24] was 9.1 µM. The GI50 [25] was 3.21 µM, the TGI [25] was 11.4 µM and the GI50 [26] was 2.71 µM. For the same molecule, the TGI [26] was 13.7 µM, the GI50 [28] was 2.13 µM and the TGI [28] was 4.87 µM. For the same molecule, the GI50 [29] was 5.56 µM, the TGI [29] was 19.8 µM and the GI50 [57] was 2.26 µM. The TGI [57] was 6.2 µM, the GI50 [30] was 3.87 µM and the TGI [30] was 34.5 µM. For the same molecule, the GI50 [32] was 4.22 µM, the TGI [32] was 23.5 µM and the GI50 [33] was 2.37 µM. It also gave a TGI [33] of 6.69 µM, a GI50 [34] of 2.59 µM and a TGI [34] of 7.06 µM. For the same molecule, the GI50 [35] was 1.95 µM, the TGI [35] was 5.28 µM and the GI50 [36] was 2.63 µM. For the same molecule, the TGI [36] was 7.26 µM, the GI50 [37] was 1.98 µM and the TGI [37] was 3.68 µM. For the same molecule, the GI50 [38] was 6.22 µM, the TGI [38] was 26.2 µM and the GI50 [39] was 3.07 µM. It also gave a TGI [39] of 11.6 µM, a GI50 [40] of 2.91 µM and a TGI [40] of 9.31 µM. The GI50 [41] was 1.99 µM, the TGI [41] was 4.01 µM and the GI50 [42] was 2.45 µM. The TGI [42] was 6.22 µM, the GI50 [43] was 1.78 µM and the TGI [43] was 3.33 µM. The GI50 [44] was 8.49 µM, the TGI [44] was 23.1 µM and the GI50 [45] was 3.2 µM. For the same molecule, the TGI [45] was 15.2 µM, the GI50 [46] was 3.93 µM and the TGI [46] was 18.3 µM. It also gave a GI50 [47] of 6.07 µM, a TGI [47] of 22.3 µM and a GI50 [49] of 2.18 µM. It also gave a TGI [49] of 4.79 µM, a GI50 [50] of 3.28 µM and a TGI [50] of 15.2 µM. For the same molecule, the GI50 [51] was 3.34 µM, the TGI [51] was 13.5 µM and the GI50 [52] was 1.88 µM. For the same molecule, the TGI [52] was 3.84 µM, the GI50 [53] was 1.8 µM and the TGI [53] was 3.88 µM. It also gave a GI50 [54] of 2 µM, a TGI [54] of 4.88 µM and a GI50 [55] of 2.5 µM. It also gave a TGI [55] of 8.02 µM.
